Assay: Inhibition of P-glycoprotein in human MCF7/ADR cells assessed as reversal fold by measuring reduction in doxorubicin IC50 at 5 uM incubated for 48 hrs by CCK-8 assay

IC50	SMILES
8.4 µM	COc1cc2c(cc1OC)CN(C(=O)c1ccc(-c3ccc4c(c3)OCO4)o1)CC2
15.1 µM	COc1cc2c(cc1OC)CN(C(=O)c1ccc(-c3cccc(OC)c3OC)o1)CC2
15.4 µM	CCOc1ccc(-c2ccc(C(=O)N3CCc4cc(OC)c(OC)cc4C3)o2)cc1
50.9 µM	COc1cc2c(cc1OC)CN(C(=O)c1ccc(-c3ccc(OCC(C)C)cc3)o1)CC2
18.8 µM	COc1ccc(OC)c(-c2ccc(C(=O)N3CCc4cc(OC)c(OC)cc4C3)o2)c1
11.7 µM	COc1cc2c(cc1OC)CN(C(=O)c1ccc(-c3ccc(OC(F)(F)F)cc3)o1)CC2
64.4 µM	COc1cc2c(cc1OC)CN(C(=O)c1ccc(-c3ccc(SC(C)C)cc3)o1)CC2
44.6 µM	CCCOc1ccc(-c2ccc(C(=O)N3CCc4cc(OC)c(OC)cc4C3)o2)cc1
9.1 µM	COc1ccc(-c2ccc(C(=O)N3CCc4cc(OC)c(OC)cc4C3)o2)cc1
62.7 µM	COc1cc2c(cc1OC)CN(C(=O)c1ccc(-c3ccc(OC(C)(C)C)cc3)o1)CC2
42 µM	COc1cc2c(cc1OC)CN(C(=O)c1ccc(-c3ccc(Oc4ccccc4)cc3)o1)CC2
18.2 µM	COc1cc2c(cc1OC)CN(C(=O)c1ccc(-c3cc(OC)c(OC)c(OC)c3)o1)CC2
9.7 µM	COc1ccc(-c2ccc(C(=O)N3CCc4cc(OC)c(OC)cc4C3)o2)cc1OC
62.7 µM	CCCCOc1ccc(-c2ccc(C(=O)N3CCc4cc(OC)c(OC)cc4C3)o2)cc1
13.5 µM	COc1cc2c(cc1OC)CN(C(=O)c1ccc(-c3ccccc3OC)o1)CC2
18.3 µM	COc1ccc(-c2ccc(C(=O)N3CCc4cc(OC)c(OC)cc4C3)o2)c(OC)c1
19.8 µM	COc1cc(OC)cc(-c2ccc(C(=O)N3CCc4cc(OC)c(OC)cc4C3)o2)c1
69.6 µM	COc1cc2c(cc1OC)CN(C(=O)c1ccc(-c3ccc(OC(C)C)cc3)o1)CC2
6.7 µM	COc1cccc(-c2ccc(C(=O)N3CCc4cc(OC)c(OC)cc4C3)o2)c1
